# ± gives the expanded uncertainty stated by the source.
# Tests used:
# [1] = Liquid; for mass density: Vibrating tube method; for viscosity: Concentric cylinders viscometry
# [2] = molar heat capacity at constant pressure; settings: Liquid, Flow calorimetry
# [3] = xn = mol fraction of the nth substance listed; settings: 100 kPa, Liquid, Concentric cylinders viscometry, x1 = 1
compound,measurement,setting,value
C=CCCCC [hex-1-ene],mass density,"[1]; 273.15 K, 100 kPa",691.5 ± 0.7 kg/m3
same,mass density,"[1]; 273.15 K, 1000 kPa",692.1 ± 0.7 kg/m3
same,mass density,"[1]; 273.15 K, 2000 kPa",693 ± 0.7 kg/m3
same,mass density,"[1]; 273.15 K, 5000 kPa",695.8 ± 0.7 kg/m3
same,mass density,"[1]; 273.15 K, 10000 kPa",700 ± 0.8 kg/m3
same,mass density,"[1]; 273.15 K, 15000 kPa",704 ± 0.8 kg/m3
same,mass density,"[1]; 273.15 K, 20000 kPa",707.8 ± 0.8 kg/m3
same,mass density,"[1]; 273.15 K, 30000 kPa",715 ± 0.8 kg/m3
same,mass density,"[1]; 273.15 K, 40000 kPa",721.6 ± 0.9 kg/m3
same,mass density,"[1]; 273.15 K, 50000 kPa",727.6 ± 0.9 kg/m3
same,mass density,"[1]; 273.15 K, 60000 kPa",733.2 ± 1 kg/m3
same,mass density,"[1]; 273.15 K, 70000 kPa",738.7 ± 1 kg/m3
same,viscosity,"[1]; 293.15 K, 100 kPa",0.28 ± 0.007 mPa·s
same,mass density,"[1]; 293.15 K, 100 kPa",672.8 ± 0.7 kg/m3
same,mass density,"[1]; 293.15 K, 1000 kPa",673.8 ± 0.7 kg/m3
same,mass density,"[1]; 293.15 K, 2000 kPa",674.9 ± 0.7 kg/m3
same,mass density,"[1]; 293.15 K, 5000 kPa",678 ± 0.7 kg/m3
same,mass density,"[1]; 293.15 K, 10000 kPa",682.9 ± 0.8 kg/m3
same,mass density,"[1]; 293.15 K, 15000 kPa",687.5 ± 0.8 kg/m3
same,mass density,"[1]; 293.15 K, 20000 kPa",691.8 ± 0.8 kg/m3
same,mass density,"[1]; 293.15 K, 30000 kPa",699.8 ± 0.8 kg/m3
same,mass density,"[1]; 293.15 K, 40000 kPa",707 ± 0.9 kg/m3
same,mass density,"[1]; 293.15 K, 50000 kPa",713.7 ± 1 kg/m3
same,mass density,"[1]; 293.15 K, 60000 kPa",719.9 ± 1 kg/m3
same,mass density,"[1]; 293.15 K, 70000 kPa",725.8 ± 1.1 kg/m3
same,viscosity,"[1]; 303.15 K, 100 kPa",0.257 ± 0.007 mPa·s
same,viscosity,"[1]; 313.15 K, 100 kPa",0.236 ± 0.006 mPa·s
same,mass density,"[1]; 313.15 K, 100 kPa",653.8 ± 0.7 kg/m3
same,mass density,"[1]; 313.15 K, 1000 kPa",654.9 ± 0.7 kg/m3
same,mass density,"[1]; 313.15 K, 2000 kPa",656.2 ± 0.7 kg/m3
same,mass density,"[1]; 313.15 K, 5000 kPa",659.9 ± 0.7 kg/m3
same,mass density,"[1]; 313.15 K, 10000 kPa",665.5 ± 0.8 kg/m3
same,mass density,"[1]; 313.15 K, 15000 kPa",670.8 ± 0.8 kg/m3
same,mass density,"[1]; 313.15 K, 20000 kPa",675.7 ± 0.8 kg/m3
same,mass density,"[1]; 313.15 K, 30000 kPa",684.6 ± 0.9 kg/m3
same,mass density,"[1]; 313.15 K, 40000 kPa",692.6 ± 0.9 kg/m3
same,mass density,"[1]; 313.15 K, 50000 kPa",699.9 ± 1 kg/m3
same,mass density,"[1]; 313.15 K, 60000 kPa",706.9 ± 1 kg/m3
same,mass density,"[1]; 313.15 K, 70000 kPa",713 ± 1.1 kg/m3
same,mass density,"[1]; 333.15 K, 100 kPa",634 ± 0.7 kg/m3
same,mass density,"[1]; 333.15 K, 1000 kPa",635.4 ± 0.7 kg/m3
same,mass density,"[1]; 333.15 K, 2000 kPa",636.9 ± 0.7 kg/m3
same,mass density,"[1]; 333.15 K, 5000 kPa",641.3 ± 0.7 kg/m3
same,mass density,"[1]; 333.15 K, 10000 kPa",647.8 ± 0.8 kg/m3
same,mass density,"[1]; 333.15 K, 15000 kPa",653.9 ± 0.8 kg/m3
same,mass density,"[1]; 333.15 K, 20000 kPa",659.5 ± 0.8 kg/m3
same,mass density,"[1]; 333.15 K, 30000 kPa",669.5 ± 0.9 kg/m3
same,mass density,"[1]; 333.15 K, 40000 kPa",678.4 ± 0.9 kg/m3
same,mass density,"[1]; 333.15 K, 50000 kPa",686.3 ± 1 kg/m3
same,mass density,"[1]; 333.15 K, 60000 kPa",693.7 ± 1.1 kg/m3
same,mass density,"[1]; 333.15 K, 70000 kPa",700.5 ± 1.1 kg/m3
same,molar heat capacity at constant pressure,"[2]; 293.15 K, 100 kPa",179.2 ± 1.1 J/K/mol
same,molar heat capacity at constant pressure,"[2]; 293.15 K, 5000 kPa",174.9 ± 1.1 J/K/mol
same,molar heat capacity at constant pressure,"[2]; 293.15 K, 10000 kPa",172.7 ± 1.1 J/K/mol
same,molar heat capacity at constant pressure,"[2]; 293.15 K, 15000 kPa",169.9 ± 1.1 J/K/mol
same,molar heat capacity at constant pressure,"[2]; 293.15 K, 20000 kPa",168.1 ± 1 J/K/mol
same,molar heat capacity at constant pressure,"[2]; 293.15 K, 25000 kPa",165.7 ± 1 J/K/mol
same,molar heat capacity at constant pressure,"[2]; 313.15 K, 100 kPa",188.8 ± 1.2 J/K/mol
same,molar heat capacity at constant pressure,"[2]; 313.15 K, 5000 kPa",185.9 ± 1.1 J/K/mol
same,molar heat capacity at constant pressure,"[2]; 313.15 K, 10000 kPa",183.1 ± 1.1 J/K/mol
same,molar heat capacity at constant pressure,"[2]; 313.15 K, 15000 kPa",181.6 ± 1.1 J/K/mol
same,molar heat capacity at constant pressure,"[2]; 313.15 K, 20000 kPa",179.6 ± 1.1 J/K/mol
same,molar heat capacity at constant pressure,"[2]; 313.15 K, 25000 kPa",177.2 ± 1.1 J/K/mol
CCCCO [butan-1-ol] + C=CCCCC,viscosity,[3]; 293.15 K,2.953 ± 0.062 mPa·s
same,viscosity,[3]; 303.15 K,2.263 ± 0.048 mPa·s
same,viscosity,[3]; 313.15 K,1.769 ± 0.038 mPa·s
CCCCO [butan-1-ol],viscosity,"[1]; 293.15 K, 100 kPa",2.953 ± 0.062 mPa·s
same,viscosity,"[1]; 303.15 K, 100 kPa",2.263 ± 0.048 mPa·s
same,viscosity,"[1]; 313.15 K, 100 kPa",1.769 ± 0.038 mPa·s
